Common to all, as to assay type: functional
Test [1] relates to Escherichia coli. Nature of the test: Antimicrobial activity against streptomycin-resistant Escherichia coli J53 transconjugant with qnrA1 producing urinary specimen isolate 13.52 by agar dilution method.
In test [2] the test system is Escherichia coli. The test is described as follows: Antimicrobial activity against streptomycin-resistant Escherichia coli J53 by agar dilution method.
In test [3] the test system is Escherichia coli. Nature of the test: Antimicrobial activity against Escherichia coli qnrA1 producing urinary specimen isolate 13.52 by agar dilution method. The conditions noted are these: Urine.

Values after ≈ are worked out from the molar mass of the structure shown.

As to `CO[C@@]1(NC(=O)Cc2cccs2)C(=O)N2C(C(=O)O)=C(COC(N)=O)CS[C@@H]21` [CEFOXITIN], the MIC in test [1] (J53, Urine) was found to be 256 µg/mL (≈ 599 µM); in test [2] it was 8 µg/mL (≈ 18.7 µM); in test [3], 32 µg/mL (≈ 74.9 µM).
In the case of GENTAMICIN, the MIC in test [1] (Urine) amounted to 2 µg/mL; in test [2] it was 0.125 µg/mL; in test [3], 2 µg/mL.
Turning to `CO/N=C(\C(=O)N[C@@H]1C(=O)N2C(C(=O)[O-])=C(C[N+]3(C)CCCC3)CS[C@H]12)c1csc(N)n1` [CEFEPIME], the MIC in test [1] (J53, Urine) stood at 0.5 µg/mL (≈ 1.04 µM); in test [2], 0.06 µg/mL (≈ 0.125 µM); in test [3] it was 0.5 µg/mL (≈ 1.04 µM).
In the case of `C[C@H]1COc2c(N3CCN(C)CC3)c(F)cc3c(=O)c(C(=O)O)cn1c23.C[C@H]1COc2c(N3CCN(C)CC3)c(F)cc3c(=O)c(C(=O)O)cn1c23.O` [LEVOFLOXACIN], the MIC is 1.5 µg/mL in test [1] (J53, Urine); 0.064 µg/mL in test [2]; 8 µg/mL in test [3].
For `COc1c(N2CCNC(C)C2)c(F)cc2c(=O)c(C(=O)O)cn(C3CC3)c12` (stereo not given) [GATIFLOXACIN], in that order: 1 µg/mL (≈ 2.66 µM), 0.012 µg/mL (≈ 0.032 µM) and 8 µg/mL (≈ 21.3 µM).
The corresponding values for `CO/N=C(\C(=O)N[C@@H]1C(=O)N2C(C(=O)O)=C(CSc3nc(=O)c(O)nn3C)CS[C@H]12)c1csc(N)n1` (stereo in doubt) [CEFTRIAXONE] are 8 µg/mL (≈ 14.4 µM), 0.047 µg/mL (≈ 0.0847 µM) and 8 µg/mL (≈ 14.4 µM).
The corresponding values for `NCC[C@H](O)C(=O)N[C@@H]1C[C@H](N)[C@@H](O[C@H]2O[C@H](CN)[C@@H](O)[C@H](O)[C@H]2O)[C@H](O)[C@H]1O[C@H]1O[C@H](CO)[C@@H](O)[C@H](N)[C@H]1O` [AMIKACIN] are 2 µg/mL (≈ 3.42 µM), 2 µg/mL (≈ 3.42 µM) and 4 µg/mL (≈ 6.83 µM).
For `CN[C@@H]1[C@H](O[C@H]2[C@H](O[C@H]3[C@H](O)[C@@H](O)[C@H](N=C(N)N)[C@@H](O)[C@@H]3N=C(N)N)O[C@@H](C)[C@]2(O)C=O)O[C@@H](CO)[C@H](O)[C@H]1O` (stereo in doubt) [STREPTOMYCIN], the MIC was above 1020 µg/mL in test [1] (J53, Urine); above 1020 µg/mL in test [2]; 192 µg/mL (≈ 330 µM) in test [3].
For the molecule `CC1(C)S[C@@H]2[C@H](NC(=O)[C@H](N)c3ccccc3)C(=O)N2[C@H]1C(=O)O` [AMPICILLIN], the MIC in test [1] (J53, Urine) was above 256 µg/mL; in test [2] it was 8 µg/mL (≈ 22.9 µM); in test [3], above 256 µg/mL.
In the case of `CCn1cc(C(=O)O)c(=O)c2ccc(C)nc21` [NALIDIXIC ACID], the MIC in test [1] (J53, Urine) was determined as 128 µg/mL (≈ 551 µM); in test [2] it was 4 µg/mL (≈ 17.2 µM); in test [3] it was 256 µg/mL (≈ 1100 µM).
For `CC(O)[C@H]1C(=O)N2C(C(=O)O)=C(SCCNC=N)C[C@H]12` (single isomer, unassigned) [IMIPENEM ANHYDROUS], in that order: at most 0.025 µg/mL, at most 0.025 µg/mL and at most 0.025 µg/mL.
On to `NC[C@H]1O[C@H](O[C@H]2[C@H](O)[C@@H](O[C@H]3O[C@H](CO)[C@@H](O)[C@H](N)[C@H]3O)[C@H](N)C[C@@H]2N)[C@H](O)[C@@H](O)[C@@H]1O` [KANAMYCIN], for which the MIC came to 128 µg/mL (≈ 264 µM) in test [1] (J53, Urine); 8 µg/mL (≈ 16.5 µM) in test [2]; 32 µg/mL (≈ 66 µM) in test [3].
With `CC(C)(O/N=C(\C(=O)N[C@@H]1C(=O)N2C(C(=O)[O-])=C(C[n+]3ccccc3)CS[C@H]12)c1csc(N)n1)C(=O)O` [CEFTAZIDIME], the MIC came to 128 µg/mL (≈ 234 µM) in test [1] (J53, Urine); 0.25 µg/mL (≈ 0.457 µM) in test [2]; 64 µg/mL (≈ 117 µM) in test [3].
The corresponding values for `C[C@@H](O)[C@H]1C(=O)N2C(C(=O)O)=C(S[C@@H]3CN[C@H](C(=O)N(C)C)C3)[C@H](C)[C@H]12` [MEROPENEM] are at most 0.025 µg/mL, at most 0.025 µg/mL and at most 0.025 µg/mL.
For `O=C(N[C@H](CO)[C@H](O)c1ccc([N+](=O)[O-])cc1)C(Cl)Cl` [CHLORAMPHENICOL], in that order: 48 µg/mL (≈ 149 µM), 8 µg/mL (≈ 24.8 µM) and above 256 µg/mL.

These data come from ChEMBL document CHEMBL1146202, “First report of plasmid-mediated qnrA1 in a ciprofloxacin-resistant Escherichia coli strain in Latin America” (2007).
